Laboratory results: US20080234183A1, “Cell Penetrating Peptides” (priority 2002, published 2008)
Where no end group is shown, it is not given here. [ ]: non-standard residue; d: D form.

Experiments:
[1] = tested on: porcine left anterior descending coronary artery; assay: Blood vessel contraction measurement
Procedure: Dissected porcine hearts (260-390 g) were transported from local slaughterhouse to the laboratory in ice-cold Krebs-Henseleit solution (119 mM NaCl, 23.8 mM NaHCO3, 3 mM KCl, 1.14 mM NaH2PO4, 1.63 mM CaCl2, and 16.5 mM glucose). Left anterior descending coronary artery and great cardiac vein were isolated. Part of each blood vessel was used immediately after Isolation for contraction assays while part of it was kept frozen in liquid nitrogen for the membrane preparation. In some experiments blood vessels in which endothelium was mechanically removed were used. The same procedure was used also for the preparation of human umbilical blood vessels; umbilical cords were obtained from Obstetric Clinic of Ljubljana Clinical Center, Slovenia.
The measurements were performed as already described (20). Rings (5 mm wide) of blood vessels were cut and mounted into 10 ml tissue chamber filled with Krebs-Henseleit solution (37° C.; pH=7.4) which was oxygenated with the mixture of ^95% O2 and 5% CO2. Initial tension of 50 mN was applied and after equilibration 30 mM KCl was added to obtain stable Isometric contraction. The presence of endothelium was verified with substance P. After washing out of KCl and substance P and after the equilibration of the system was restored, test peptide was added into the tissue chamber and blood vessel contraction was recorded.

[2] = tested on: pancreatic islets; assay: Insulin release from isolated pancreatic islets; format: cell-based, rat
Procedure: Effects of the peptides on insulin secretion were assessed in pancreatic islets from male Wistar rats weighing 200-250 g. Islets were isolated aseptically by colagenase digestion, and then cultured overnight at 37° C. in RPMI 1640 culture medium supplemented with 10% heat-inactivated fetal calf serum. After culturing, analysis of insulin secretion was performed by incubation at 37° C. for 1 h in batches of 3 islets, each in 300 μl of Krebs-Ringer bicarbonate buffer with 10 mM Hepes and 2 mg/ml bovine serum albumin, pH 7.4. The incubation medium contained either 3.3 or 16.7 mM glucose, with or without peptide. In one experimental series, batches of 5×10^5 Rin m5F cells were incubated under similar conditions, except that glucose was omitted from the medium. Aliquots of the incubation medium were taken for radioimmunoassay of Insulin. Insulin secretion is expressed as IU insulin/islet/h and IU insulin/5×10^5 cells/h, respectively. Statistical significance was evaluated with the Student's t-test with p<0.05 regarded as significant

[3] = tested on: N2A mouse neuroblastoma cells; assay: Cellular internalisation assay of fluorescein-labelled APP and PS peptides; format: cell-based; settings: for cellular internalisation / cellular localisation: 10 μM, 37°; for cellular internalisation: 60 min
Procedure: Mouse neuroblastoma cells, N2A, were cultivated in Dulbecco's minimal essential medium with Glutamax-I, supplemented with 10% (v/v) fetal bovine serum, penicillin (100 U/ml) and streptomycin (100 μg/ml).
The cells used for Internalisation were seeded out on round glass coverslips in 24well plates. One day post seeding, the cells were semi confluent, and the medium was changed to serum-free medium. The fluorescein-labelled peptides were added, with a final concentration of 10 μM. After 60 min of incubation at 37°, the cells were washed 3 times with 1 ml of Hepes-Krebbs-Ringer-(HKR) buffer and fixed with 3% paraformaldehyde solution in phosphate-buffered saline solution (PBS) for 10 minutes. The cells were then washed 3 times with 1 ml of HKR-buffer, and the coverslips were mounted and sealed for microscopy studies.
The cell type used for the internalisation assays with the fluorescein'tagged peptides was N2A mouse neuroblastoma cells. This cell-line is commonly used in association with Alzheimer's disease studies, and serves as a good model cell-line for these internalisation assays where peptides derived from proteins involved in Alzheimer's disease were examined. These Internalisation assays were performed at 37° C., therefore the internalisation by endocytosis cannot be excluded.

[4] = In vivo effect of GOP on insulin release and blood glucose level; set-up: species or system Wistar rats
Procedure: Healthy male Wistar rats, weighing approximately 250 g, were fasted over-night. After an initial blood sample obtained by incision of the distal tail vein (0 min), GOP (M528, 100 nmol/kg; n=4) was injected intraperitoneally, followed by another i.p. injection of glucose (1 g/kg). Control rats (n=4) were injected with saline and glucose. Additional blood samples were taken from the tail vein after 10 and 30 min. Blood glucose levels were determined by a glucose oxidase method and plasma insulin levels by radioimmunoassay.

[5] = tested on: human Bowes melanoma cells; assay: Cellular penetration of biotin-labelled peptide; format: cell-based
Procedure: The medium containing serum was exchanged for a serum-free medium and water solution of the peptide was added directly into the medium to reach the concentration of 10 μM. A negative control was always used, because living cells all the time have some biotin inside. To control cells pure water instead peptide solution were added, and further handled alike all other. The cells were incubated for 1 h at 37° C. or 4° C. in 5% CO2 enriched air. The cells were washed three times with PBS, fixed and permeabilised with methanol for 10 min at −20° C., washed again with PBS and Incubated for 1 h in a 5% (w/v) solution of fat-free milk in PBS in order to decrease non-specific binding. The peptides were visualised by staining with 0.1 μM streptavidin-FITC in the same solution for 1 hour at room temperature. The cell nuclei were visualised by staining with DNA with Hoechst 33258 (0.5 μg/ml) for 5 min, thereafter the coverslips were washed 3 times with PBS and mounted in 20% glycerol in PBS. The images were obtained by Zeiss Axioplan 2 microscope (Carl Zeiss Inc., Germany).

[6] = tested on: Bowes cells; assay: Peptide uptake in attached Bowes cells, fluorescence in cell lysate; format: cell-based, human; settings: Fluoresceinyl peptide, 5 μM, 30 min, 37° C.
Procedure: Cells were detached with trypsin (Invitrogen, Sweden), dissolved in culture media and centrifuged (1000×g for 10 min at RT). The cells were resuspended, counted and aliqoted in HKR on Ice, 300 000 cells/tube. Abz-labelled peptide was incubated for 15 and 30 min together with the cells in suspension, on a shaking 37° C. water bath. To stop the uptake or outflow, trypsin solution was added for 3 min. The cells were spun down at 1000×g for 10 min at 4° C. The pellets were resuspended in HKR for fluorescence detection, or for the outflow samples, incubated again with peptide-free HKR. Fluorescence was read at 320/420 nm on a Spectramax Gemini XS (Molecular Devices, Calif.). The intracellular concentrations were calculated from a standard curve of Abz-labelled peptides. […] Additionally, a varianty of the same assay was applied: the cells were seeded in a 24well plate at a density of 100 000 cells/well, the day before. Cells are incubated at 5 μM peptide concentration for 30 min at 37° C. Trypsin treated, washed and lysed in hydrochloric acid. The fluorescence was measured as described for the suspension assay.
Human melanoma cells Bowes, were cultured in MEM using standard cell culturing techniques, and seeded at density of 100 000 cells/well in 24 well-plates the day before experiments were conducted.

[7] = tested on: N2A cells; format: cell-based, mouse
[8] = tested on: LoVo cells; assay: Internalisation of biotinylated selCPPs, fluorescence microscopy; format: cell-based, human
Procedure: One aspect of the present invention thus comprises a method for screening the cellular uptake of a broad variety of CPPs in vitro, wherein cells are grown on glass cover slips to suitable, such as 50%, density, whereupon the media is changed to serum free and a blotinylated peptide solution is added. The cells are then incubated, washed, fixed and the peptides are visualised by staining with, e.g. avidin-FITC, or streptavidin-TRITC, and the cell nuclei are counterstained, e.g. with Hoechst. Images are preferably obtained with a fluorescence microscope and evaluated.
FIG. 5. Example of inactivated selCPP. Internalisation of YTA-2 (A) compared to YTA-2 ps (B) In LoVo cells, both biotynilated peptides detected by TRITC-avidin at 37° C.
The cells were grown on round glass cover slips (12 mm, GTF, Sweden) in a 24-well plate to approximately 50% confluence. The media was changed to serum free and the biotinylated peptide solutions were added. The cells were incubated for 30 min at 37 or 4° C. The cells were washed twice with PBS, fixed with 4% paraformaldehyde solution 15 min at room temperature (dark) and then permeabilised in 30 mM HEPES buffer containing 0.5% w/v Triton X-100, 3 min on Ice. Sites for unspecific binding were blocked In PBS containing 3% (w/v) bovine serum albumin, overnight at 4° C. The peptides were visualised by staining with avidin-FrTC or streptavidin-TRITC (Molecular Probes, the Netherlands). The cell nuclei were stained with Hoechst 33258 (0.5 μg/ml) for 5 min, after which the cover slips were washed 3 times with PBS and mounted in 25% glycerol in PBS. The images were obtained with a Leica DM IRE2 fluorescence microscope (Leica Microsystem., Sweden) and processed in PhotoShop 6.0 software (Adobe Systems Inc., CA) (See e.g. FIG. 38-40).

For `COc1ccc2c(c1)CC[C@@H]1[C@@H]2CC[C@]2(C)[C@@H](NCCCCCCN3C(=O)C=CC3=O)CC[C@@H]12` [Peptide U73122], the “effect on tonus of the artery” value ([1]; 30 μM) was “did not affect tonus”, the “effect on M511-induced contraction after posterior administration” value ([1]; 30 μM, 16 μM M511) was “did not modify blood vessel contraction” and the “decrease of the effect of M511” value ([1]; 30 μM, added 30 minutes prior to 16 μM M511) was “more than 50%”.
In the case of IAIAKLAA amide (IAIAKLAA-NH2) [GOP11], the “Insulin release at 16.7 mM glucose” value ([2]; 10 μM peptide) is reported as “inh−”, the “Insulin release at 3.3 mM glucose” value ([2]; 100 μM peptide) is reported as “inh−” and the “Insulin release at 16.7 mM glucose” value ([2]; 100 μM peptide) is reported as “inh−−”.
In the case of IAIAKLKA amide (IAIAKLKA-NH2) [GOP4], the “Insulin release at 16.7 mM glucose” value ([2]; 10 μM peptide) is reported as “inh−−”, the “Insulin release at 3.3 mM glucose” value ([2]; 100 μM peptide) is reported as “inh−” and the “Insulin release at 16.7 mM glucose” value ([2]; 100 μM peptide) is reported as “inh−”.
For “IATVIFITLVMLKKK [APP (712-726) V717F mutant]”, the “aggregation on addition to the 24-well plate” value [3] was “formed aggregates” and the cellular internalisation [3] was “do not reveal any no uptake”.
With IATVIVITLVMLKKK [APP (712-726) WT] the “aggregation on addition to the 24-well plate” value [3] was “formed aggregates” and the cellular internalisation [3] was “do not reveal any no uptake”.
For IVIAKLAA amide (IVIAKLAA-NH2) [GOP5], the “Insulin release at 16.7 mM glucose” value ([2]; 10 μM peptide) was “inh−”, the “Insulin release at 3.3 mM glucose” value ([2]; 100 μM peptide) was “no” and the “Insulin release at 16.7 mM glucose” value ([2]; 100 μM peptide) was “no”.
With IVIAKLKA amide (IVIAKLKA-NH2) [GOP] the plasma insulin ([4]; 100 nmol/kg i.p. + glucose 1 g/kg, after 10 min, vs control rats p<0.05) was “increased significantly”, the blood glucose levels ([4]; 100 nmol/kg i.p. + glucose 1 g/kg, at 10 min, vs control rats p<0.02) was “significantly lower” and the “insulin and glucose levels vs control rats” value ([4]; after 30 min) was “no differences”. For the same compound, the “stimulation of insulin release” value ([2]; 10 μM GOP, 3.3 mM glucose, p<0.001) was 5 fold, the “Insulin release at 16.7 mM glucose” value ([2]; 10 μM peptide) was “stim+” and the “Insulin release at 3.3 mM glucose” value ([2]; 100 μM peptide) was “no”. The “Insulin release at 16.7 mM glucose” value ([2]; 100 μM peptide) was “stim++” and the “stimulation of insulin release” value ([2]; 1 and 10 FM GOP, 16.7 mM glucose) was 4 fold.
With “IVIAKLKANLMCKTCRLAK-amide (IVIAKLKANLMCKTCRLAK-NH2; cysteine pairing not given here) [Peptide M569]” the cellular penetration ([5]; 37° C. and 4° C.) was “temperature independent penetration” and the cellular localisation ([5]; Bowes cells, 37° C.) was “both cytosolic and plasma membrane localisation”.
In the case of IVIAKLRA amide (IVIAKLRA-NH2) [GOP3], the “Insulin release at 16.7 mM glucose” value ([2]; 10 μM peptide) is reported as “stim+”, the “Insulin release at 3.3 mM glucose” value ([2]; 100 μM peptide) is reported as “stim++” and the “Insulin release at 16.7 mM glucose” value ([2]; 100 μM peptide) is reported as “stim++”.
For IVVSKLKA amide (IVVSKLKA-NH2) [GOP16], the “Insulin release at 16.7 mM glucose” value ([2]; 10 μM peptide) was “no”, the “Insulin release at 3.3 mM glucose” value ([2]; 100 μM peptide) was “no” and the “Insulin release at 16.7 mM glucose” value ([2]; 100 μM peptide) was “no”.
With KKAAQIRSQVMTHLRVI [APP (521-536)] the cellular localisation [3] was “both in the nucleus and the membrane” and the cellular internalisation [3] was “has cell-penetrating abilities”.
For LRSWRVIIRNGQR [LRSW-3], the “% of added fluorescence in cell lysate” value [6] was 1.9%.
With LRSWVISRSIRKAA [LRSW-1] the “% of added fluorescence in cell lysate” value [6] was 1.4%.
In the case of “MANLGYWLLALFVTMWTDVGLCKKRPKP [mouse PrPC(1-28)]”, the cargo delivery [7] is reported as “ability to carry a cargo avidin into cells”, the cell-penetrating activity [7] is reported as “is indeed a CPP” and the cellular localization [7] is reported as “perinuclear localization”.
With “SGESLAY-YTAIAWVKAFIRKLRK (SGESLAYYTAIAWVKAFIRKLRK) [YTA-2ps]” the “Comment (staining/localisation)” value [8] was “bind the plasma” and the “% of added fluorescence in cell lysate” value [6] was 3.5%.
In the case of Sar^1-Thr^8-angiotensin II, the “effect on contraction induced by M511” value ([1]; 45 μM antagonist) is reported as “unable to affect” and the “effect on contraction induced by angiotensin II” value ([1]; 45 μM antagonist) is reported as “able to revert”.
With TP10 [reference compound] the “% of added fluorescence in cell lysate” value [6] was 1.8%.
With Transportan [reference compound] the “% of added fluorescence in cell lysate” value [6] was 10.5%.
In the case of “VATKSVSVFYTRK [presenilin-1 (97-109) deletion analogue]”, the cellular localisation [3] is reported as “mostly localised in the cytosole” and the cellular internalisation [3] is reported as “showed cell-penetrating abilities”.
For VVLYKYRCYKVI [presenilin-1 (151-162)], the cellular internalisation [3] was “Identical increase in fluorescence”.
With “all-D-(IVIAKLKA) amide ([dI][dV][dI][dA][dK][dL][dK][dA]-NH2; N-terminus assumed; SMILES CC[C@@H](C)[C@@H](N)C(=O)N[C@@H](C(=O)N[C@@H](C(=O)N[C@H](C)C(=O)N[C@H](CCCCN)C(=O)N[C@H](CC(C)C)C(=O)N[C@H](CCCCN)C(=O)N[C@H](C)C(N)=O)[C@H](C)CC)C(C)C) [GOP6]” the “Insulin release at 16.7 mM glucose” value ([2]; 10 μM peptide) was “inh−”, the “Insulin release at 3.3 mM glucose” value ([2]; 100 μM peptide) was “stim+” and the “Insulin release at 16.7 mM glucose” value ([2]; 100 μM peptide) was “no”.
For “angiotensin: angiotensin II, AT1 receptor agonist”, the “contraction effect compared with 30 mM KCl” value ([1]; 1 μM) was “almost the same as the effect of 30 mM KCl”.
